Laboratory results: patent US20120128711A1, “ANTI-INFLAMMATORY APPROACH TO PREVENTION AND SUPPRESSION OF POST-TRAUMATIC STRESS DISORDER, TRAUMATIC BRAIN INJURY, DEPRESSION AND ASSOCIATED DISEASE STATES” (TOTAL NUTRACEUTICAL SOLUTIONS, INC., priority 2009, published 2012)
“Also recorded” adds a separate entry of the source.

Tests used:
[1] = test system: Drosophila melanogaster under Paraquat-induced oxidative stress; experiment: Survival of Drosophila melanogaster under Paraquat-induced oxidative stress; type: in vivo; details: 10 mM Paraquat
Experimental: The effect of Agaricus Blazei without enrichment, with Vitamin D2 enrichment, pure Vitamin D2 and control (vehicle for the delivery) on the survival rate of Drosophila melanogaster under Paraquat-induced oxidative stress condition was tested. The study focused on the control of Paraquat induced oxidative stress/biologic death. Paraquat is a very potent oxidative stress inducing chemical and causes death in animals and plants by the toxicity of released free radicals. Paraquat (10 mM concentration) (Sigma Aldrich) was used to chemically induce oxidative stress. Paraquat is the trade name for N,N′-dimethyl-4,4′-bipyridinium dichloride, a widely used herbicide. Paraquat, a viologen, is quick-acting and non-selective, killing green plant tissue on contact. It is also toxic to humans when swallowed. This is the most standard chemical used in experimental induction of oxidative stress using the Drosophila model system. It catalyzes the formation of reactive oxygen species (ROS). Paraquat will undergo redox cycling in vivo, gets reduced by an electron donor such NADPH, before being oxidized by an electron receptor such as dioxygen to produce superoxide, a major ROS.
The following materials and methods were utilized. Vials containing 10 mM Paraquat (from Sigma Aldrich) in 5 ml of 1.2% Low melting point Agarose medium were prepared. A strip of half moist filter paper was inserted in the medium (with the wet end in). Yeast paste containing 1% concentration (w/w) of the various test materials (see above) mixed to homogeneity was prepared. Yeast paste without drug was used as control. Uniform aliquot (˜300 mg) of yeast paste with or without the test material) was applied to vials in such a way that yeast paste was on the glass surface and covered the dry end (top) of the filter paper strip. Freshly enclosed wild type isogenized Canton-S males and females were collected and starved on 1% agar medium for 5-6 hours. Four males and females were transferred to the vial containing 10 mM paraquat in LMP agarose medium and yeast paste with +/− test material (8 flies per vial). 6 vials were used per experiment. Vials with flies were placed horizontally in a tray. The experiment was conducted at 25 degrees C. temperature. Flies were transferred once in 2 days and the number of flies surviving at each transfer was recorded.

[2] = test system: Alzheimer's disease (AD) model in Drosophila; experiment: Survival of Alzheimer's disease (AD) model flies (UAS-hAPP;408-GAL4); type: in vivo; details: mushroom or turmeric powder 1% w/w, Vitamin D2/D3 0.75% w/w in yeast paste, 25 degrees C
Excerpt: Type of Model (with specific Drosophila model of neurodegeneration, with references). The targeted over/ectopic expression of APP in the brain using a UAS promoter driven APP transgene, induced by a specific GAL4 trans-driver in the brain of a Drosophila model system, was used for this Example. Below is a reference for such over-expression of APP in the Drosophila model system and the combination gives a fully penetrant AD with limited life-span.
β-Amyloid peptides and amyloid precursor protein (APP) play a deterministic role in Alzheimer's disease (AD). […]
We determined the extension of life span in the mutant strain for each test compound. […]
A series of experiments were run according to the methods earlier reported on Paraquat induced oxidative stress and Drosophila Alzheimer's disease flies. […] We determined the extension of life span in the mutant strain for each test compound as detailed below. […]
In the meantime, yeast paste containing required concentration of compound was prepared. […] Required quantity of both yeast and compound was weighed and finely ground in a pestle and mortar. The finely ground powder was transferred to a small beaker and appropriate quantity of water was added and mixed very well to make a homogeneous paste. […]

Compound	effect on survival under Paraquat-induced oxidative stress (words) [1]	survivability under Paraquat-induced oxidative stress condition ([1]; 1% w/w test material in yeast paste, period of 10 days, 25 degrees C) [%+/−3%]	effect on survival under Paraquat-induced oxidative stress (words) ([1]; listed as Vitamin D2)	effect on survival of AD flies [2]
C=C1CC[C@H](O)C/C1=C/C=C1\CCC[C@]2(C)[C@@H]([C@H](C)/C=C/[C@H](C)C(C)C)CC[C@@H]12 [pure Vitamin D2, ergocalciferol]	no effect on survival	13	deleterious effect on the survival; also recorded: no beneficial effect	no such effect
C=C1CC[C@H](O)C/C1=C/C=C1\CCC[C@]2(C)[C@@H]([C@H](C)CCCC(C)C)CC[C@@H]12 [Vitamin D3, cholecalciferol]	no beneficial effect; also recorded: no effect on survival			
